The record followed here is US12590063B2, “Phenol derivative” (Sumitomo Pharma Co., Ltd., priority 2020, dated 2026).

One series relates to Crl:CD(SD) rats. The experiment in a line: Evaluation of taste aversion by drinking water. Type of series: in vivo, rat. The settings on record: two-bottle choice, overnight. The method, then:
Test Example 3: Evaluation of Taste Aversion by Drinking Water
This test is for evaluating the taste aversion of drugs. The test was carried out by, while keeping Crl:CD(SD) rats (8 rats per group, 8 weeks old at the time of arrival) in home cages, adding the test substance solutions to water bottles. Two water bottles per cage were prepared, each filled with vehicle (sterile water containing 0.05% ethanol) and the test substance solution, and kept overnight, and the amount of water consumed during that period was measured. The proportion of water consumed with the test substance was calculated from the total amount of water consumed from the two water bottles, and the evaluation of taste aversion was carried out. It can be evaluated that the larger the proportion of water consumed with the test substance, the smaller the taste aversion and the smaller the stimulatory properties caused by the test substance.

Series [1] is described as follows: Evaluation test for metabolic stability to S9. The series is classed as in vitro ADME. The settings on record: liver S9 fraction, 37° C., 15 minutes, final compound concentration 10 nM. As for the experimental part:
Test Example 4: Evaluation Test for Metabolic Stability to S9
The compounds were added to a reaction solution in which the liver S9 fraction was diluted with phosphate buffer, and incubation was initiated at 37° C. (final compound concentration 10 nM, final volume 300 μL). After incubation for 15 minutes, the reaction was stopped by adding the reaction solution to acetonitrile, and centrifugation was carried out. After filtering the supernatant through a filter, the amount of compounds was determined using LC/MS/MS. From the amount of compounds obtained, the residual rate 15 minutes after the initiation of the reaction was calculated relative to the amount of compounds before the initiation of the reaction (0 minutes).

Another series has as its target T1, Human TRPV1 (Homo sapiens, UniProt Q8NER1).
T1 construct: the TRPV1 gene (GenBank NP_542435.2) had been inserted; expressed in transfected cells; host or cells: HEK293 cells (cat #CCL-82.2, ATCC), transient transfection with pcDNA3.1
Put plainly: Evaluation of agonistic properties using human TRPV1 transiently expressing cells. Type of series: cell-based. The conditions noted are these: for EC50: HEK293 cells transiently expressing human TRPV1 and apoaequorin, luminescence signal Rlu (Max-Min), read-out: TRPV1 EC50. An excerpt: Test Example 1: Evaluation of Agonistic Properties Using Human TRPV1 Transiently Expressing Cells
(1) Generation of Human TRPV1 Transiently Expressing Cells
Human TRPV1 transiently expressing cells were generated and subjected to culture. Specifically, HEK293 cells (cat #CCL-82.2, ATCC) were used as host cells. Human TRPV1 and apoaequorin were transiently expressed by introducing the mammalian cell expression pcDNA3.1 vector (cat #v790-20, Invitrogen) into which the TRPV1 gene (GenBank NP_542435.2) had been inserted.
The Dulbecco's Modified Eagle's Medium (DMEM) medium (cat #11550-043, Thermo Fisher Scientific) containing 10% inactivated fetal bovine serum (cat #10270-106, Thermo Fisher Scientific) was used as the medium, and the culture was carried out in tissue culture dishes (cat #3020-100, Iwaki). During the culture, cells were collected every 2 to 3 days by treating with PBS containing 10% 2.5 g/1-trypsin/[…] solution, phenol red (cat #32777-44, Nacalai Tesque), and passage culture was carried out.
Three days after the passage, cells were collected with 10% trypsin-PBS treatment at a state of about 80% confluency, suspended in a DMEM medium containing 10% fetal bovine serum to 4000 cells/35 μl/well, and seeded into 384-well plates (cat #353962, FALCON).
The day after seeding, Viviren (cat #E6492, Promega) was added (15 μl/well) to a final concentration of 4.5 μM/HBSS (cat #14065-056, Thermo Fisher Scientific)/90 mM HEPES (cat #17514-15, Nacalai Tesque)/0.1% BSA (cat #01281-84, Nacalai Tesque), and after centrifugation, the samples were allowed to stand at room temperature for 2 hours under light-shielded conditions.
(2) Preparation of Test Compounds
For the test compounds, dimethyl sulfoxide solutions were produced at a concentration 1000 times the final concentration, and from these solutions, solutions at concentration 10 times the final concentration were prepared with Hanks/20 mmol/L HEPES/0.10% BSA (cat #01281-84, Nacalai Tesque).
(3) Evaluation of TRPV1-Agonistic Properties
FDSS7000 (Hamamatsu Photonics K.K.) was used for detection of TRPV1 agonist-stimulated luminescence signals. The test compounds were added to plates to which the cells and luminescent substrates had been added. The luminescence signals (center wavelength: 465 nm) after addition of the test compounds were measured, and the Rlu (Max−Min) was calculated.

T1 sequence (Q8NER1 whole entry): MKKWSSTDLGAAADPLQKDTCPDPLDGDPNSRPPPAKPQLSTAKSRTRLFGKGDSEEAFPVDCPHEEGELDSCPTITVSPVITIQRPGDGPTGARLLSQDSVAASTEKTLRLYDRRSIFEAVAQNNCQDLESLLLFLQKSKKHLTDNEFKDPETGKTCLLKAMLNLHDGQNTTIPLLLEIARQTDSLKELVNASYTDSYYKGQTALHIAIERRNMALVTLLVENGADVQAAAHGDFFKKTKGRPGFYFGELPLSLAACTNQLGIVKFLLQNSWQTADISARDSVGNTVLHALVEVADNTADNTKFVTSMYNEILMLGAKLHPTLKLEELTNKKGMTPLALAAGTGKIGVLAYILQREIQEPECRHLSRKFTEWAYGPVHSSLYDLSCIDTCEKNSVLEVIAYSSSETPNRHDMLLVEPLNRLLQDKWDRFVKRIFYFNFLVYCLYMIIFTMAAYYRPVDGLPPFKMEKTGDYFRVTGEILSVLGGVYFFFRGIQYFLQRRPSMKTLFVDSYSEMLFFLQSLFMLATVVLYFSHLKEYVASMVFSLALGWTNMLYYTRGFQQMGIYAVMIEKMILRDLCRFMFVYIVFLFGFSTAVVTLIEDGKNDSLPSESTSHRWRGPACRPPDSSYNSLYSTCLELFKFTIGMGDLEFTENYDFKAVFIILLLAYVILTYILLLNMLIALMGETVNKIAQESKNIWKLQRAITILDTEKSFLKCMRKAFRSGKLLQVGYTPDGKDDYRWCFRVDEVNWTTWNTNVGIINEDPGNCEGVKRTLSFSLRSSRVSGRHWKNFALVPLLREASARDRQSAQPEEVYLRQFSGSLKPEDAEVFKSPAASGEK

Turning to `COc1cc(CC(=O)Nc2ccnc(-c3cccc(OC(=O)C(C)C)c3)c2)ccc1O` [Example 26, 3-{4-[2-(4-hydroxy-3-methoxyphenyl)acetamido]pyridin-2-yl}phenyl 2-methylpropanoate], the figures for the “proportion of water consumed with the test substance (% Vehicle)” value with Crl:CD(SD) rats (1 μM in drinking water), in the series with Crl:CD(SD) rats (3 μM in drinking water) and in the series with Crl:CD(SD) rats (10 μM in drinking water) were 113 % Vehicle, 86 % Vehicle and 55 % Vehicle, respectively. In addition, the “Residual rate (%)” value in series [1] is less than 1%. Moreover, at Human TRPV1, the EC50 (commonly the midpoint of the concentration-response curve) is 2.3 nM. Also, the “TRPV-1-agonistic activity (in words)” value on Human TRPV1 (evaluation test for TRPV-1-agonistic properties, summary of Tables 3 and 4) is recorded as “stronger TRPV-1-agonistic activity”.

In the case of `COc1cc(CNC(=O)c2cccc(-c3cccc(OC(=O)C(C)C)c3)n2)ccc1O` [Example 47, 3-(6-{[(4-hydroxy-3-methoxyphenyl)methyl]carbamoyl}pyridin-2-yl)phenyl 2-methylpropanoate], the “Residual rate (%)” value in series [1] is listed as less than 1%. In addition, the EC50 at Human TRPV1 is 148 nM.
